Values after ≈ are worked out from the molar mass of the structure shown.
Key:
Type in all cases: functional
Staphylococcus aureus = test: Antibacterial activity against Staphylococcus aureus MTCC 96 after 24 hr by serial tube dilution method; conditions: MTCC 96, 24 h
Candida albicans = test: Antifungal activity against Candida albicans MTCC 3018 after 48 hr by serial tube dilution method; conditions: MTCC 3018, 48 h
PC-3 = test: Cytotoxicity against Homo sapiens (human) PC3 cells assessed as cell growth inhibition at 1 x 10^-5 M after 48 hr by SRB assay; conditions: PC-3, 48 h, read-out: GI
OVCAR = test: Cytotoxicity against Homo sapiens (human) OVCAR cells assessed as cell growth inhibition at 1 x 10^-5 M after 48 hr by SRB assay; conditions: read-out: GI
HEp-2 = test: Cytotoxicity against Homo sapiens (human) Hep2 cells assessed as cell growth inhibition at 1 x 10^-5 M after 48 hr by SRB assay; conditions: HEp-2, 48 h, read-out: GI
Aspergillus niger = test: Antifungal activity against Aspergillus niger MTCC 1344 after 48 hr by serial tube dilution method; conditions: MTCC 1344, 48 h
IMR-32 = test: Cytotoxicity against Homo sapiens (human) IMR32 cells assessed as cell growth inhibition at 1 x 10^-5 M after 48 hr by SRB assay; conditions: IMR-32, 48 h, read-out: GI
Salmonella typhi = test: Antibacterial activity against Salmonella enterica subsp. enterica serovar Typhi MTCC 1251 after 24 hr by serial tube dilution method; conditions: MTCC 1251, 24 h
Escherichia coli = test: Antibacterial activity against Escherichia coli MTCC 82 after 24 hr by serial tube dilution method; conditions: MTCC 82, 24 h
Pseudomonas aeruginosa = test: Antibacterial activity against Pseudomonas aeruginosa MTCC 2642 after 24 hr by serial tube dilution method; conditions: MTCC 2642, 24 h
Bacillus subtilis = test: Antibacterial activity against Bacillus subtilis MTCC 2451 after 24 hr by serial tube dilution method; conditions: MTCC 2451, 24 h

## COc1cc(/C=C/C(=O)c2ccc3ccccc3c2)cc(OC)c1OC
Staphylococcus aureus
  MIC: 1.9 µg/mL (≈ 5.45 µM)
Candida albicans
  MIC: 125 µg/mL (≈ 359 µM)
PC-3
  inhibition of growth at 10 µM: 84%
OVCAR
  inhibition of growth at 10 µM: 87%
HEp-2
  inhibition of growth at 10 µM: 79%
Aspergillus niger
  MIC: 125 µg/mL (≈ 359 µM)
IMR-32
  inhibition of growth at 10 µM: 81%
Salmonella typhi
  MIC: 15.6 µg/mL (≈ 44.8 µM)
Escherichia coli
  MIC: 3.9 µg/mL (≈ 11.2 µM)
Pseudomonas aeruginosa
  MIC: 15.6 µg/mL (≈ 44.8 µM)
Bacillus subtilis
  MIC: 3.9 µg/mL (≈ 11.2 µM)

Source: ChEMBL document CHEMBL3045657, “Synthesis and biological evaluation of naphthalene, furan and pyrrole based chalcones as cytotoxic and antimicrobial agents” (2012)
